# Results published in US20150105252A1, “SUBSTITUTED PYRAZOLES AS HERBICIDES” (E I DU PONT DE NEMOURS AND COMPANY, priority 2013, published 2015).
# Tests used:
# foxtail, giant [1] = experiment: Test C postemergence; format: in vivo, Setaria faberii
# Summary of the method: (§1)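 Herbicidal effect is expressed as percent visual control (0–100) judged against untreated plants 13 to 15 days after treatment in the greenhouse. Preemergence pots contained seeds in a soil–sand blend; postemergence plants, 2–18 cm tall, grew in peat-based planting medium.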
# morningglory = experiment: Test A postemergence; format: in vivo, Ipomoea spp.
# Summary of the method: (§2)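 Seeds were sown in a loam soil–sand blend and given a directed soil spray preemergence; postemergence plants at 2–10 cm, one- to two-leaf stage, were sprayed with compound in non-phytotoxic solvent with surfactant. After about 10 days in a greenhouse, injury was visually rated against untreated controls (0 = no effect, 100 = complete control).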
# foxtail, giant [2] = experiment: Test A postemergence; format: in vivo, Setaria faberii
# Summary of the method: as §2
# ducksalad = experiment: Test B flood; format: in vivo, Heteranthera limosa; details: 250 g ai/ha, visual rating on 0 to 100 scale (0 no effect, 100 complete control), 13 to 15 days
# Summary of the method: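 Response scored visually, 0–100 relative to controls, 13–15 days after the compound was applied into paddy water; plants were at the 2-leaf stage in pots kept flooded to 3 cm.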
# oat, wild = experiment: Test C postemergence; format: in vivo, Avena fatua
# Summary of the method: as §1
# crabgrass, large = experiment: Test C preemergence; format: in vivo, Digitaria sanguinalis; details: for Crabgrass, Large plant response rating: preemergence
# Summary of the method: as §1
# johnsongrass = experiment: Test C postemergence; format: in vivo, Sorghum halepense; details: for Plant response rating, Johnsongrass: postemergence
# Summary of the method: as §1
# foxtail, giant [3] = experiment: Test A preemergence; format: in vivo, Setaria faberii; details: preemergence
# Summary of the method: as §2
# foxtail, giant [4] = experiment: Test C preemergence; format: in vivo, Setaria faberii; details: for Foxtail, Giant plant response rating: preemergence
# Summary of the method: as §1
# waterhemp [5] = experiment: Test C preemergence; format: in vivo, Amaranthus rudis; details: for Waterhemp plant response rating: preemergence
# Summary of the method: as §1
# waterhemp [6] = experiment: Test C postemergence; format: in vivo, Amaranthus rudis
# Summary of the method: as §1
# galium = experiment: Test C postemergence; format: in vivo, Galium aparine
# Summary of the method: as §1
# chickweed = experiment: Test C postemergence; format: in vivo, Stellaria media
# Summary of the method: as §1
# [7] = Postemergence, 31 g ai/ha, visually evaluated after 13 to 15 days
# [8] = postemergence, 62 g ai/ha, scale 0 to 100
# [9] = postemergence, 250 g ai/ha, scale 0 to 100 (0 no effect, 100 complete control)
# [10] = postemergence, 125 g ai/ha, scale 0 to 100, 0 no effect, 100 complete control
# [11] = Postemergence, 500 g ai/ha, visual rating after approx. 10 days, 0 to 100 scale (0 no effect, 100 complete control)
# [12] = postemergence, 125 g ai/ha, about 10 days, visual rating on 0 to 100 scale (0 no effect, 100 complete control)
# [13] = 31 g ai/ha, visual rating, scale 0 to 100 (0 no effect, 100 complete control), 13 to 15 days
# [14] = 62 g ai/ha, scale 0 to 100 (0 no effect, 100 complete control), 13 to 15 days
# [15] = 125 g ai/ha, scale 0 to 100, 0 is no effect, 100 is complete control
compound,measurement,setting,value
CCc1cc(-c2ccc(C(F)(F)F)cc2)nn1Cc1ccnc(C(F)(F)F)c1 [Compound 110],"Plant response rating (scale of 0 to 100 where 0 is no effect and 100 is complete control), Foxtail, Giant","foxtail, giant [1]; [7]",35
same,"Foxtail, Giant plant response rating","foxtail, giant [1]; [8]",40
same,"Plant response rating, Foxtail, Giant","foxtail, giant [1]; [9]",70
same,"Plant response rating, Foxtail, Giant","foxtail, giant [1]; [10]",60
same,Morningglory plant response rating,morningglory; [11],100
same,Morningglory plant response rating,morningglory; [12],100
same,"Foxtail, Giant plant response rating","foxtail, giant [2]; [11]",100
same,"Foxtail, Giant plant response rating","foxtail, giant [2]; [12]",90
same,"Plant response rating, Ducksalad",ducksalad,80
same,"Plant response rating (scale of 0 to 100 where 0 is no effect and 100 is complete control), Oat, Wild","oat, wild; [7]",5
same,"Oat, Wild plant response rating","oat, wild; [8]",25
same,"Plant response rating, Oat, Wild","oat, wild; [9]",35
same,"Plant response rating, Oat, Wild","oat, wild; [10]",30
same,"Plant response rating (scale of 0 to 100), Crabgrass, Large","crabgrass, large; Preemergence, 250 g ai/ha",100
same,"Crabgrass, Large plant response rating","crabgrass, large; [13]",95
same,"Crabgrass, Large plant response rating","crabgrass, large; [14]",98
same,"Crabgrass, Large plant response rating","crabgrass, large; [15]",100
same,"Plant response rating (scale of 0 to 100 where 0 is no effect and 100 is complete control), Johnsongrass",johnsongrass; [7],40
same,"Plant response rating, Johnsongrass","johnsongrass; 250 g ai/ha, scale 0 to 100 (0 no effect, 100 complete control)",90
same,"Plant response rating, Johnsongrass","johnsongrass; 125 g ai/ha, scale 0 to 100, 0 no effect, 100 complete control",75
same,"Foxtail, Giant plant response rating","foxtail, giant [3]; 125 g ai/ha, visual injury, 0 to 100 scale, approx. 10 days",100
same,"Foxtail, Giant plant response rating","foxtail, giant [3]; 500 g ai/ha, visual injury after approx. 10 days, 0 to 100 scale (0 no effect, 100 complete control)",100
same,"Plant response rating (scale of 0 to 100), Foxtail, Giant","foxtail, giant [4]; Preemergence, 250 g ai/ha",100
same,"Foxtail, Giant plant response rating","foxtail, giant [4]; [13]",98
same,"Foxtail, Giant plant response rating","foxtail, giant [4]; [14]",98
same,"Foxtail, Giant plant response rating","foxtail, giant [4]; [15]",100
same,"Plant response rating (scale of 0 to 100), Waterhemp","waterhemp [5]; Preemergence, 250 g ai/ha",100
same,Waterhemp plant response rating,waterhemp [5]; [13],100
same,Waterhemp plant response rating,waterhemp [5]; [14],100
same,Waterhemp plant response rating,waterhemp [5]; [15],100
same,"Plant response rating (scale of 0 to 100 where 0 is no effect and 100 is complete control), Waterhemp",waterhemp [6]; [7],100
same,Waterhemp plant response rating,waterhemp [6]; [8],100
same,"Plant response rating, Waterhemp",waterhemp [6]; [9],100
same,"Plant response rating, Waterhemp",waterhemp [6]; [10],100
same,"Plant response rating (scale of 0 to 100 where 0 is no effect and 100 is complete control), Galium",galium; [7],60
same,Galium plant response rating,galium; [8],60
same,"Plant response rating, Galium",galium; [10],90
same,"Plant response rating (scale of 0 to 100 where 0 is no effect and 100 is complete control), Chickweed",chickweed; [7],70
same,Chickweed plant response rating,chickweed; [8],70
same,"Plant response rating, Chickweed",chickweed; [9],95
same,"Plant response rating, Chickweed",chickweed; [10],90
